# From PubChem BioAssay AID256 (DTP/NCI, 2004)
# Toxic doses and inconclusive results are not listed.
# Test system: CD2F1 mice, L1210 leukemia ip, survival T/C
# Test: NCI In Vivo Anticancer Drug Screen. Data for tumor model L1210 Leukemia (intraperitoneal) in CD2F1 (CDF1) mice
# Conditions: higher = longer survival
# How it was run: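 Read-out first: treated-group measurement over vehicle-control measurement, expressed as a ratio. Animals bore a transplanted tumor line and were dosed with compound or vehicle.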
# [1] = endpoint: mean survival time, dose: 100.0 mg/kg/injection, schedule: Q04DX003 (ip), vehicle: saline with Tween-80
# [2] = endpoint: mean survival time, dose: 200.0 mg/kg/injection, schedule: Q04DX003 (ip), vehicle: saline with Tween-80
# [3] = endpoint: mean survival time, dose: 400.0 mg/kg/injection, schedule: Q04DX003 (ip), vehicle: saline with Tween-80
# [4] = endpoint: mean survival time, dose: 100.0 mg/kg/injection, schedule: Q01DX001 (ip), vehicle: saline with Tween-80
# [5] = endpoint: mean survival time, dose: 400.0 mg/kg/injection, schedule: Q01DX001 (ip), vehicle: saline with Tween-80
# [6] = endpoint: mean survival time, dose: 100.0 mg/kg/injection, schedule: Q01DX001 (ip), vehicle: saline
# [7] = endpoint: mean survival time, dose: 200.0 mg/kg/injection, schedule: Q01DX001 (ip), vehicle: saline
# [8] = endpoint: mean survival time, dose: 100.0 mg/kg/injection, schedule: Q01DX009 (ip), vehicle: saline with Tween-80
# [9] = endpoint: mean survival time, dose: 200.0 mg/kg/injection, schedule: Q01DX009 (ip), vehicle: saline with Tween-80
# [10] = endpoint: mean survival time, dose: 400.0 mg/kg/injection, schedule: Q01DX009 (ip), vehicle: saline with Tween-80
smiles,measurement,setting,value
Cc1c2cnccc2c(C)c2c1c1ccccc1n2CCNCc1ccccc1,T/C,[1],105 % of control
same,T/C,[2],107 % of control
CCOC(=O)Cn1c(=O)cc(C)c2ccccc21,T/C,[1],100 % of control
same,T/C,[2],101 % of control
same,T/C,[3],101 % of control
CC/C(=N\[N+](C)(C)C)c1ccccc1,T/C,"endpoint: mean survival time, dose: 18.8 mg/kg/injection, schedule: Q01DX009 (ip), vehicle: saline",96 % of control
same,T/C,"endpoint: mean survival time, dose: 37.5 mg/kg/injection, schedule: Q01DX009 (ip), vehicle: saline",91 % of control
CC(C(C(=O)O)S(=O)(=O)O)C(C(=O)O)S(=O)(=O)O (stereo unspecified),T/C,"endpoint: mean survival time, dose: 12.5 mg/kg/injection, schedule: Q01DX001 (ip), vehicle: other",91 % of control
same,T/C,"endpoint: mean survival time, dose: 25.0 mg/kg/injection, schedule: Q01DX001 (ip), vehicle: other",95 % of control
same,T/C,"endpoint: mean survival time, dose: 50.0 mg/kg/injection, schedule: Q01DX001 (ip), vehicle: other",98 % of control
ClCCOc1ccccc1-c1ccccc1,T/C,"endpoint: mean survival time, dose: 100.0 mg/kg/injection, schedule: Q04DX003 (ip), vehicle: other",98 % of control
same,T/C,"endpoint: mean survival time, dose: 200.0 mg/kg/injection, schedule: Q04DX003 (ip), vehicle: other",96 % of control
same,T/C,"endpoint: mean survival time, dose: 400.0 mg/kg/injection, schedule: Q04DX003 (ip), vehicle: other",100 % of control
CCOC(OCC)/C(C)=N/[N+](C)(C)C,T/C,"endpoint: mean survival time, dose: 75.0 mg/kg/injection, schedule: Q01DX001 (ip), vehicle: saline",107 % of control
same,T/C,"endpoint: mean survival time, dose: 150.0 mg/kg/injection, schedule: Q01DX001 (ip), vehicle: saline",98 % of control
COC1=CCC(=Nc2ccccc2)C=C1,T/C,[4],96 % of control
same,T/C,"endpoint: mean survival time, dose: 200.0 mg/kg/injection, schedule: Q01DX001 (ip), vehicle: saline with Tween-80",102 % of control
same,T/C,[5],95 % of control
CCCC1C(CC)C=NN1C (stereo unspecified),T/C,[6],102 % of control
same,T/C,[7],101 % of control
same,T/C,"endpoint: mean survival time, dose: 400.0 mg/kg/injection, schedule: Q01DX001 (ip), vehicle: saline",98 % of control
CC1=CCC=C(CNc2ncnc3nc[nH]c23)C1,T/C,[1],87 % of control
N#CC(C(=O)c1ccccc1)c1ccccc1 (stereo unspecified),T/C,"endpoint: mean survival time, dose: 75.0 mg/kg/injection, schedule: Q01DX001 (ip), vehicle: other",100 % of control
same,T/C,"endpoint: mean survival time, dose: 150.0 mg/kg/injection, schedule: Q01DX001 (ip), vehicle: other",101 % of control
same,T/C,"endpoint: mean survival time, dose: 300.0 mg/kg/injection, schedule: Q01DX001 (ip), vehicle: other",106 % of control
COc1cccc(C(=O)c2ccccc2NC(C)=O)c1,T/C,[8],101 % of control
same,T/C,[9],103 % of control
same,T/C,[10],98 % of control
O=C1c2ccccc2C(=O)c2cc(NS(=O)(=O)C(F)(F)F)ccc21,T/C,[6],96 % of control
same,T/C,[7],100 % of control
C=C(c1ccccc1)c1ccc(N(C)C)cc1,T/C,[1],100 % of control
same,T/C,[2],91 % of control
same,T/C,[3],95 % of control
O=C(O)c1ccc(CC23CC4CC(CC(C4)C2)C3)cc1,T/C,[4],91 % of control
same,T/C,[8],96 % of control
same,T/C,[9],91 % of control
same,T/C,[5],91 % of control
same,T/C,[10],86 % of control
Cc1nc2c(N)cc(Cl)cc2[nH]1,T/C,"endpoint: median survival time, dose: 25.0 mg/kg/injection, schedule: Q01DX005 (ip), vehicle: saline with Tween-80",101 % of control
same,T/C,"endpoint: median survival time, dose: 50.0 mg/kg/injection, schedule: Q01DX005 (ip), vehicle: saline with Tween-80",101 % of control
same,T/C,"endpoint: median survival time, dose: 100.0 mg/kg/injection, schedule: Q01DX005 (ip), vehicle: saline with Tween-80",103 % of control
